In patent US8846948B2, “Compounds” (Boehringer Ingelheim International GmbH, priority 2011, dated 2014):

Target: T1, human recombinant mGluR5 (Homo sapiens, UniProt P41594)
T1 construct: expressed in transfected cells; host or cells: HEK 293 cell line, cultured with tetracycline, hygromycin and geneticin
Assay: Positive modulation of mGluR5, calcium based FLIPR assay
Conditions: EC50 of the modulation; HEK 293 cell line expressing human recombinant mGluR5; peak height of Ca release fluorescence signal after glutamate at approximately 5% basal stimulation
Experimental: The positive modulation of mGluR5 is measured in a HEK 293 cell line expressing human recombinant mGluR5 and is detected with calcium based FLIPR assay. The cells are cultured with DMEM supplemented with 10% FCS, 2 μg/mL tetracycline, 100 μg/mL hygromycin and 500 μg/mL gneticin. The cell culture media is exchanged for tetracycline-free cell culture media 3-7 days before the assay. One day before the assay the cell culture medium is exchanged to DMEM without glutamine and phenol red and supplemented with 10% FCS, 100 μg/mL hygromycin and 500 μg/mL geneticin. On the assay day, the medium of the subconfluent cultures is removed and the cells are detached by addition of 2.5 ml EDTA (0.02%) per 175 cm2 culture flask for 1 minute. The cells are resuspend in Ringer solution (140 mM NaCl, 5 mM KCl, 2.5 mM CaCl2, 1.5 mM MgCl2, 5 mM Glucose, 10 mM Hepes; adjusted to pH 7.4 with NaOH), pooled and Ringer solution added to adjust the volume to 50 mL. The cell suspension is centrifuged for […] at 1500 U/min (425 g). The supernatant is removed and the cells washed a second time with 50 ml fresh Ringer solution and centrifuged again as before. The supernatant is again removed and the pellet resuspended in Ringer solution to 1,000,000 cells/ml (1×10^6 cells/mL). The cells are plated onto BD BioCoat Poly-D-Lysine 384 well plates (20.000 cells/well; 20 μl/well). The lid covered plates are then incubated until use at 37° C./10% CO2. For dye loading, 20 μl of Calcium-4 assay kit solution (prepared according to the manufacturer's description in Ringer solution) are added to the cells and the plates are incubated for […] 37° C. and then […] at room temperature.
Controls, Compound dilution and assay execution:
Each assay plate contained wells with “high” and “low” controls:
Low controls 1% DMSO/ringer solution+basal glutamate activation (defined as 100% CTL).
High controls 10 μM CDPPB+basal glutamate activation (defined as 200% CTL).
Test compounds are dissolved and diluted in DMSO to 100-fold the desired concentrations. In a second step, the compounds are diluted in Ringer solution such that the compounds are 4-fold more concentrated than the desired final assay concentration. The final DMSO concentration was 1%.
20 μl of each compound solution are then transferred to the assay plate and the Ca2+ kinetic is measured to determine any intrinsic compound activity. After 5 mM incubation in the FLIPR device, the second stimulation with 20 μl of glutamate in Ringer solution (glutamate concentration adjusted to approximately 5% basal stimulation of the maximal possible glutamate effect) is added and the kinetic Ca2+ response of the wells was measured for the modulation effect.
The peak height of the Ca release related fluorescence signal (9-66) is used for the EC50. The EC50 of the modulation is calculated over a nonlinear regression with GraphPad Prism (Table 1).

T1 sequence (P41594 21-1212): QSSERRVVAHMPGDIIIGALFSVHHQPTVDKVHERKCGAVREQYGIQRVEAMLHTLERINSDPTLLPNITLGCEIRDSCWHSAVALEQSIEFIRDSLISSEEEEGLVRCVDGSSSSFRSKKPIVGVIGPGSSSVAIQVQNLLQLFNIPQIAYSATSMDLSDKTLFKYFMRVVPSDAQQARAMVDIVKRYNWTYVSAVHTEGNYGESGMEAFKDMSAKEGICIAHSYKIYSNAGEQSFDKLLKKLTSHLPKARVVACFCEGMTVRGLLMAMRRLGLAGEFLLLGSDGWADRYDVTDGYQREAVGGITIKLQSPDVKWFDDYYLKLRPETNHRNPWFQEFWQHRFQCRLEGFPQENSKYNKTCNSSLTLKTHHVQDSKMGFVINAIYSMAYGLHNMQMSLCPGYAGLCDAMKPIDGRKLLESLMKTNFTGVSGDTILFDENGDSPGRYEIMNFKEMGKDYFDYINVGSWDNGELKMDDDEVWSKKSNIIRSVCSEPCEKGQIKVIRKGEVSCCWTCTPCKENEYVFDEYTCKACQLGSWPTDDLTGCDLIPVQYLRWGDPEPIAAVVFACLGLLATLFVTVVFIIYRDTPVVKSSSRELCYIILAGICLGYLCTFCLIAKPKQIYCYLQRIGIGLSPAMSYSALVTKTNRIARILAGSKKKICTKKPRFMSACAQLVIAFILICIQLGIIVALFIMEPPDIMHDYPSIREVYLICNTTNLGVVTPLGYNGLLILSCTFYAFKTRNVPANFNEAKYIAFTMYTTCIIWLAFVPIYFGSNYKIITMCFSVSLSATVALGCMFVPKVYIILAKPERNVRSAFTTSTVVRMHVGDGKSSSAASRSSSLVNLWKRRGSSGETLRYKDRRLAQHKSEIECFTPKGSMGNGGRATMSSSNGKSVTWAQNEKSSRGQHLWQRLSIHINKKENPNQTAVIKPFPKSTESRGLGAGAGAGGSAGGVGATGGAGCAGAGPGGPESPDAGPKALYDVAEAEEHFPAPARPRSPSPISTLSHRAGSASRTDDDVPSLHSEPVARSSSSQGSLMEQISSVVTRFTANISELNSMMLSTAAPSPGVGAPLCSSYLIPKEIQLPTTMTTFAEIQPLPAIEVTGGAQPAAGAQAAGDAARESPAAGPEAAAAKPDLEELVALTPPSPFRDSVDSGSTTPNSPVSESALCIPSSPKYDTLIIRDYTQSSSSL

EC50 [nM]	SMILES
262	O=C(Cn1cc(-c2ccc(F)cc2)nc1-c1ccc(F)cc1)N1CCN(c2ncnc3[nH]cnc23)CC1 [Example 7.01.28.]
680	CCOc1ccc(-c2cn(CC(=O)N3CCN(c4ncccn4)CC3)c(-c3ccccc3)n2)cc1 [Example 7.03.06.]
158	O=C(Cn1cc(-c2cccc(Cl)c2)nc1-c1ccccc1)N1CCN(c2ncccn2)CC1 [Example 7.03.13.]
159	COc1cc(N2CCN(C(=O)Cn3cc(-c4ccc(F)c(C)c4)nc3-c3ccccc3)CC2)ncn1 [Example 7.01.05.]
31	Cc1cc(-c2cn(CC(=O)N3CCN(c4ncccn4)CC3)c(-c3ccc(F)cc3)n2)ccc1F [Example 7.01.19.]
147	Cc1cc(-c2cn(CC(=O)N3CCN(c4ncncn4)CC3)c(-c3ccc(F)cc3)n2)ccc1F [Example 7.01.24.]
73	Cc1cccc(-c2cn(CC(=O)N3CCN(c4ccccn4)CC3)c(-c3ccccc3)n2)c1 [Example 7.01.35.]
148	COc1ccnc(N2CCN(C(=O)Cn3cc(-c4cccc(C)c4)nc3-c3ccccc3)CC2)c1 [Example 7.01.33.]
857	Cc1cc(-c2cn(CC(=O)N3CCN(c4ncnc5[nH]cnc45)CC3)c(C3CCCCC3)n2)ccc1F [Example 7.01.13.]
73	Cc1cc(-c2cn(CC(=O)N3CCN(c4ncnc5[nH]cnc45)CC3)c(-c3ccc(F)cc3)n2)ccc1F [Example 7.01.20.]
97	Cc1cc(-c2cn(CC(=O)N3CCN(c4ncc(F)cn4)CC3)c(-c3ccccc3)n2)ccc1F [Example 7.01.08.]
858	O=C(Cn1cc(-c2ccc(F)cc2)nc1-c1ccccc1)N1CCN(c2ncnc3[nH]cnc23)CC1 [Example 7.01.15.]
363	Cc1cc(-c2cn(CC(=O)N3CCN(c4cccnn4)CC3)c(-c3ccccc3)n2)ccc1F [Example 7.01.04.]
74	CCc1ccc(-c2cn(CC(=O)N3CCN(c4ncccn4)CC3)c(-c3ccccc3)n2)cc1 [Example 7.03.18.]
53	COc1cnc(N2CCN(C(=O)Cn3cc(-c4ccc(F)c(C)c4)nc3-c3ccccc3)CC2)nc1 [Example 7.01.07.]
1290	O=C(Cn1cc(-c2ccccc2)nc1-c1ccccc1)N1CCN(c2ncccn2)CC1 [Example 7.01.01., 2-(2,4-Diphenyl-imidazol-1-yl)-1-(4-pyrimidin-2-yl-piperazin-1-yl)-ethanone]
76	Cc1cc(-c2cn(CC(=O)N3CCN(c4ccccn4)CC3)c(-c3ccccc3)n2)ccc1F [Example 7.01.06.]
877	COc1cc(N2CCN(C(=O)Cn3cc(-c4ccc(F)cc4)nc3-c3ccccc3)CC2)ncn1 [Example 7.01.16.]
710	Cc1cc(-c2cn(CC(=O)N3CCN(c4ccccn4)CC3)c(C3CCCCC3)n2)ccc1F [Example 7.01.11.]
40	COc1cc(-c2cn(CC(=O)N3CCN(c4ncccn4)CC3)c(-c3ccccc3)n2)ccc1F [Example 7.03.17.]
858	Cc1cccc(-c2cn(CC(=O)N3CCN(c4cccnn4)CC3)c(-c3ccccc3)n2)c1 [Example 7.01.34.]
889	O=C(Cn1cc(-c2ccc(F)cc2)nc1-c1ccc(F)cc1)N1CCN(c2cccnn2)CC1 [Example 7.01.29.]
272	O=C(Cn1cc(-c2ccc(F)cc2)nc1-c1ccccc1)N1CCN(c2ncccn2)CC1 [Example 7.03.01., 2-[4-(4-Fluoro-phenyl)-2-phenyl-imidazol-1-yl]-1-(4-pyrimidin-2-yl-piperazin-1-yl)-ethanone]
84	COc1ccnc(N2CCN(C(=O)Cn3cc(-c4ccc(F)c(C)c4)nc3-c3ccccc3)CC2)c1 [Example 7.01.02.]
67	Cc1ccc(-c2cn(CC(=O)N3CCN(c4ncccn4)CC3)c(-c3ccccc3)n2)cc1 [Example 7.03.02.]
542	O=C(Cn1cc(-c2ccc(F)cc2)nc1-c1ccccc1)N1CCN(c2ccccn2)CC1 [Example 7.01.17.]
395	O=C(Cn1cc(-c2cccc(F)c2)nc1-c1ccccc1)N1CCN(c2ncccn2)CC1 [Example 7.03.04.]
464	COc1ccc(-c2cn(CC(=O)N3CCN(c4ccccn4)CC3)c(-c3ccccc3)n2)cc1 [Example 7.02.01., 2-[4-(4-Methoxy-phenyl)-2-phenyl-imidazol-1-yl]-1-(4-pyridin-2-yl-piperazin-1-yl)-ethanone]

EC50 [nM]	SMILES
48	Cc1ccc(-c2cn(CC(=O)N3CCN(c4ncccn4)CC3)c(-c3ccccc3)n2)cc1Cl [Example 7.03.09.]
168	COc1ccnc(N2CCN(C(=O)Cn3cc(-c4ccc(F)cc4)nc3-c3ccc(F)cc3)CC2)c1 [Example 7.01.30.]
29	COc1cc(-c2cn(CC(=O)N3CCN(c4ncccn4)CC3)c(-c3ccccc3)n2)ccc1C [Example 7.03.12.]
87	O=C(Cn1cc(-c2ccc(F)c(Cl)c2)nc1-c1ccccc1)N1CCN(c2ncccn2)CC1 [Example 7.03.05.]
183	O=C(Cn1cc(-c2cccc(C(F)(F)F)c2)nc1-c1ccccc1)N1CCN(c2ncccn2)CC1 [Example 7.03.14.]
1320	COc1cc(N2CCN(C(=O)Cn3cc(-c4ccc(F)c(C)c4)nc3C3CCCCC3)CC2)ncn1 [Example 7.01.09.]
306	COc1ccnc(N2CCN(C(=O)Cn3cc(-c4ccc(F)cc4)nc3-c3ccccc3)CC2)c1 [Example 7.01.14.]
61	O=C(Cn1cc(-c2ccc3c(c2)CCCO3)nc1-c1ccccc1)N1CCN(c2ncccn2)CC1 [Example 7.03.15.]
458	Cc1cc(-c2cn(CC(=O)N3CCN(c4ncccn4)CC3)c(C3CCCCC3)n2)ccc1F [Example 7.01.12.]
914	CN1CCOc2cc(-c3cn(CC(=O)N4CCN(c5ncccn5)CC4)c(-c4ccccc4)n3)ccc21 [Example 7.03.11.]
131	Cc1cccc(-c2cn(CC(=O)N3CCN(c4ncnc5[nH]cnc45)CC3)c(-c3ccccc3)n2)c1 [Example 7.01.32.]
54	Cc1cc(-c2cn(CC(=O)N3CCN(c4ncccn4)CC3)c(-c3ccccc3)n2)ccc1Cl [Example 7.03.03.]
151	CCOc1cccc(-c2cn(CC(=O)N3CCN(c4ncccn4)CC3)c(-c3ccccc3)n2)c1 [Example 7.03.08.]
238	COc1cc(N2CCN(C(=O)Cn3cc(-c4ccc(F)cc4)nc3-c3ccc(F)cc3)CC2)ncn1 [Example 7.01.27.]
41	Cc1cc(-c2cn(CC(=O)N3CCN(c4ncccn4)CC3)c(-c3ccccc3)n2)ccc1F [Example 7.01.03.]
737	COc1ccnc(N2CCN(C(=O)Cn3cc(-c4ccc(F)c(C)c4)nc3C3CCCCC3)CC2)c1 [Example 7.01.10.]
159	O=C(Cn1cc(-c2ccc(F)c(F)c2)nc1-c1ccccc1)N1CCN(c2ncccn2)CC1 [Example 7.03.10.]
75	COc1ccnc(N2CCN(C(=O)Cn3cc(-c4ccc(F)c(C)c4)nc3-c3ccc(F)cc3)CC2)c1 [Example 7.01.23.]
38	Cc1cc(-c2cn(CC(=O)N3CCN(c4ncccn4)CC3)c(-c3ccccc3)n2)cc(C)c1F [Example 7.03.07.]
83	Cc1cc(-c2cn(CC(=O)N3CCN(c4ncc(F)cn4)CC3)c(-c3ccc(F)cc3)n2)ccc1F [Example 7.01.26.]
144	Cc1cc(-c2cn(CC(=O)N3CCN(c4cccnn4)CC3)c(-c3ccc(F)cc3)n2)ccc1F [Example 7.01.22.]
99	COc1cc(N2CCN(C(=O)Cn3cc(-c4ccc(F)c(C)c4)nc3-c3ccc(F)cc3)CC2)ncn1 [Example 7.01.18.]
1640	Cc1ccc(-c2nc(-c3ccccc3)cn2CC(=O)N2CCN(c3ccccn3)CC2)cc1 [Example 7.02.02.]
1530	Cn1cnc2ccc(-c3cn(CC(=O)N4CCN(c5ncccn5)CC4)c(-c4ccccc4)n3)cc21 [Example 7.03.16.]
69	COc1cnc(N2CCN(C(=O)Cn3cc(-c4ccc(F)c(C)c4)nc3-c3ccc(F)cc3)CC2)nc1 [Example 7.01.25.]
196	COc1cc(N2CCN(C(=O)Cn3cc(-c4cccc(C)c4)nc3-c3ccccc3)CC2)ncn1 [Example 7.01.36.]
244	O=C(Cn1cc(-c2ccc(F)cc2)nc1-c1ccc(F)cc1)N1CCN(c2ccccn2)CC1 [Example 7.01.31.]
